Values after ≈ are worked out from the molar mass of the structure shown.
How the values were obtained:
Assay type in all cases: functional
Spodoptera exigua [1] = test: Resistance factor, LC50 for Spodoptera exigua F11 neonate larvae to LC50 for Spodoptera exigua F0 neonate larvae
Spodoptera exigua [2] = test: Insecticidal activity against Spodoptera exigua F0 neonate larvae assessed as mortality at 27 +/- 1 degC, 60 to 70% RH measured after 72 hr; conditions: F0, 72 h
Spodoptera exigua [3] = test: Resistance factor, LC50 for Spodoptera exigua F22 neonate larvae to LC50 for Spodoptera exigua F0 neonate larvae
Spodoptera exigua [4] = test: Insecticidal activity against Spodoptera exigua F11 neonate larvae assessed as mortality at 27 +/- 1 degC, 60 to 70% RH measured after 72 hr; conditions: F11, 72 h
Spodoptera exigua [5] = test: Resistance factor, LC50 for Spodoptera exigua F22 neonate larvae to LC50 for Spodoptera exigua SS neonate larvae
Spodoptera exigua [6] = test: Resistance factor, LC50 for Spodoptera exigua F0 neonate larvae to LC50 for Spodoptera exigua SS neonate larvae
Spodoptera exigua [7] = test: Insecticidal activity against susceptible strain Spodoptera exigua SS neonate larvae assessed as mortality at 27 +/- 1 degC, 60 to 70% RH measured after 72 hr
Spodoptera exigua [8] = test: Resistance factor, LC50 for Spodoptera exigua F11 neonate larvae to LC50 for Spodoptera exigua SS neonate larvae
Spodoptera exigua [9] = test: Insecticidal activity against Spodoptera exigua F22 neonate larvae assessed as mortality at 27 +/- 1 degC, 60 to 70% RH measured after 72 hr; conditions: F22, 72 h

SMILES: CNC(=O)c1cc(Cl)cc(C)c1NC(=O)c1cc(Br)nn1-c1ncccc1Cl [CHLORANTRANILIPROLE]
- RatioLC50 (Spodoptera exigua [1]): 5
- LC50 (Spodoptera exigua [2]): 0.157 µg/mL (≈ 0.325 µM)
- RatioLC50 (Spodoptera exigua [3]): 12
- LC50 (Spodoptera exigua [4]): 0.78 µg/mL (≈ 1.61 µM)
- RatioLC50 (Spodoptera exigua [5]): 137.4
- RatioLC50 (Spodoptera exigua [6]): 11.4
- LC50 (Spodoptera exigua [7]): 0.0137 µg/mL (≈ 0.0284 µM)
- RatioLC50 (Spodoptera exigua [8]): 56.9
- LC50 (Spodoptera exigua [9]): 1.88 µg/mL (≈ 3.9 µM)
